Patent US20260335282A1, “NOVEL 3-ARYLIDENE-2-INDOLINONE DERIVATIVES FOR THERAPEUTIC USE” (ISTANBUL UNIVERSITESI REKTORLUGU, priority 2022, published 2026)
Entries after “also recorded” stand apart in the source; their conditions may differ. Like-named read-outs stand apart in the source and are kept apart here.

Key:
MCF-10F/Beas2b cells = assay: MTT cytotoxicity, healthy cells MCF-10F/Beas2b; assay type: cell-based, human; conditions: for Selectivite Index, MCF-10F/Beas2b (Table 2): MCF-10F/Beas2b vs colon or pancreas cancer cells; for IC50: MTT
Procedure, shortened: (§1)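 Viability was quantified by MTT reduction following 48 and/or 72 h compound exposure at four concentrations (0.1, 1, 5, 10 μM). Values are percentages of DMSO-treated controls, with IC50 fitted from dose-response data.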

A498 cells = assay: MTT cytotoxicity, kidney cancer cells A498; assay type: cell-based, human; conditions: MTT
Procedure, shortened: as §1

MDA-MB-231 cells = assay: MTT cytotoxicity, breast cancer cells MDA-MB-231; assay type: cell-based, human; conditions: for IC50: MTT, no * mark (incubation time not given)
Procedure, shortened: as §1

MIAPaCa-2 cells [1] = assay: MTT cytotoxicity, pancreas cancer cells MIAPaCa-2; assay type: cell-based, human
Procedure, shortened: (§2)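 Cells were seeded at 5000 per well and treated next day with compound at 0.1, 1, 5 and 10 μM (final) for 48 and/or 72 h, with matched DMSO controls. MTT was added for 4 h and formazan was dissolved in DMSO and read at 570/630 nm. % viability against control gave IC50 from dose-response curves.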

A549 cells = assay: MTT cytotoxicity, lung cancer cells A549; assay type: cell-based, human
Procedure, shortened: as §1

HCT-116 cells = assay: MTT cytotoxicity, colon cancer cells HCT-116; assay type: cell-based, human
Procedure, shortened: as §2

CAKI-1 cells = assay: MTT cytotoxicity, kidney cancer cells CAKI-1; assay type: cell-based, human
Procedure, shortened: as §1

human cancer cells = assay: MTT cell viability, human cancer cells overall; assay type: cell-based; conditions: cell line as discussed at the place
Description: The cytotoxicity, general tyrosine kinase inhibitory effects and cell death (apoptosis/necrosis) assays of 1-benzyl-3-(1H-indol-3-ylmethylidene)-1,3-dihydro-2H-indol-2-one derivatives (Formula 5) of the present invention are studied by the following methods. […] HUVEC (human umbilical vein endothelial cell), MCF-10F (human breast epithelial cell) and Beas2b (human lung bronchial epithelial cell) cell lines have been used as healthy control cells in MTT experiments.
Beas2b (human lung bronchiole epithelial cell) and HEK293 (renal tubule epithelium) cells used as normal cell lines were cultured in RPMI medium, and HUVEC (human umbilical cord endothelial cells) and MCF-10F (human breast epithelial cell) cells are cultured in DMEM medium containing 100 µg/ml penicillin/streptomycin. The cells, which covered 70% of the culture flask, are washed with phosphate buffer and then removed from the surface of the flask by application of trypsin-ethylenediamine tetraacetic acid (Trypsin-EDTA; 0.25%) solution, passaged, counted and seeded on appropriate plates before each experiment. Cells are treated with a total of 45 2-indolinone compounds (5) at concentrations of 0.1, 1, 5 and 10 μM. Stock compounds are prepared in 1 ml dimethylsulfoxide (DMSO) and 4 different dilutions were prepared with medium and performed to the cells. Control group cells are treated with DMSO at a similar concentration to the experimental groups.
MTT (3-(4,5-dimethylthiazol-2-yl)-2,5-diphenyl-2H-tetrazolium bromide) colorimetric assay provides quantitation of viable cells with ongoing mitochondrial activity in culture medium. According to the standard procedure in cell culture conditions, cells are maintained in RPMI-1640 and DMEM culture media containing 10% FBS and 1% penicillin/streptomycin. The trypan blue test is used for cell counts.
The effects of 45 2-indolinone compounds (5) on cell viability in all cancer cell lines are investigated by MTT assay. Cells are seeded in a 96-well flat bottom plate with 5000 cells in each well and 2-indolinone compounds (5) at concentrations of 0.1, 1, 5 and 10 μM are performed to the cells the next day. After 48 and/or 72 hours following treatment with 2-indolinone compounds, 50 μl of the supernatant is slowly discarded (as it was acid medium) and MTT at a concentration of 5 mg/ml is added to each well in a volume of 10 μl. After incubation for 4 hours, the formazan crystals formed in the wells are dissolved by adding 100 μl DMSO and the optical density is read at 570 nm test wavelength and 630 nm reference wavelength. Cell viability is expressed as % cell viability by comparing the absorbance of control and test wells. IC50 value is calculated from the dose-response curves prepared for each compound. In addition, the possible DMSO effect is eliminated by preparing negative control wells compatible with the amount of DMSO contained in the compounds. To understand the reaction of the compounds with MTT, cell-free (MTT+compounds) negative controls are prepared at the concentrations used (Mosmann, 1983). […] The absorbance values obtained are compared to the control and statistically evaluated by unpaired t-test using “Graphpad Prism 5.04” software. “P<0.05” is accepted as significant. When evaluating cytotoxic effects, the present inventors aim for the inventive compounds to be effective in cancer cells and ineffective in healthy cells. […]

HUVEC cells = assay: MTT cytotoxicity, healthy cells HUVEC; assay type: cell-based, human; conditions: for IC50: MTT; for Selectivite Index, HUVEC (Table 2): HUVEC vs colon or pancreas cancer cells
Procedure, shortened: as §1

HT-29 cells = assay: MTT cytotoxicity, colon cancer cells HT-29; assay type: cell-based, human; conditions: for IC50: MTT
Procedure, shortened: as §2

MCF-7 cells = assay: MTT cytotoxicity, breast cancer cells MCF-7; assay type: cell-based, human; conditions: MTT
Procedure, shortened: as §1

MIAPaCa-2 cells [2] = assay: Apoptosis/necrosis detection, Annexin V/PI flow cytometry, MiaPaca-2; assay type: cell-based, human
Procedure: (§3) After incubation with 2-indolinone compounds (IC50 μM concentration; 48 and/or 72 hours), cells are washed twice with PBS and the cell pellet is suspended in Annexin V binding buffer. After this incubation, cells are incubated with FITC-conjugated Annexin V and propidium iodine staining solution for 15 minutes in the dark and at room temperature. Then, cells are analyzed by flow cytometry (Beckman coulter, Navios) (Wlodkowic, D., Skommer, J, Darzynkiewicz, Z. 2009. Flow cytometry-based apoptosis detection, Methods Mol Biol., 559, 1-14).

[3] = tested on: general tyrosine kinase activity in MIA PaCa-2 pancreas cancer cells; assay: General tyrosine kinase activity (ELISA) in MIAPaCa-2 cells; assay type: cell-based, human; conditions: 72 hours, IC50 concentration
Procedure: Takara Universal Tyrosine Kinase Assay Kit is used to determine the effects of 11 2-indolinone compounds (Y1, Y2, Y3, Y4, Y5, Y8, […], […], Y21, Y23, 20C, 22C) on general tyrosine kinase activity in cancer cells. Cells are seeded in 6-well plates (4.10^5 cells/well) and the IC50 concentration of each selected molecule is performed to the cells for 48 or 72 hours. Cells in the control group are incubated with medium only. At the end of the incubation period, the cells in each well are washed with PBS and cells are removed from the wells using a cell scraper via 1 ml of the extraction buffer in the kit. The cell lysate is transferred to ependorf tubes and centrifuged at 10.000 g for 10 minutes at +4° C. and the supernatant is used as a sample for activity determination. After the extracts obtained from the control and experimental groups are diluted 1:25, 40 μl extracts is transferred to two wells in the 96-well plate in the kit. In addition, the standard solution in the kit is diluted according to the kit instructions and each concentration is transferred 40 μl into three wells. 10 μl of 40 mM ATP-2Na solution is added to all wells and the plate is incubated at 37° C. for 30 minutes. After incubation, all wells are washed 4 times with wash buffer. 100 μl of blocking solution is added to each well and incubated again at 37° C. for 30 minutes. After incubation, the liquid in the wells is discarded and 50 μl of anti-phosphotyrosine-HRP solution is added to each well and incubated at 37° C. for 30 minutes. The wells are washed again four times with wash buffer and 100 μl of HRP-substrate solution (TMBZ) is added to each well and incubated at 37° C. for 15 minutes. The reaction is finished by adding 100 μl of stop solution to each well and the optical density in each well is measured at 405 nm with a microplate reader (BioTek, USA). The tyrosine kinase activity in each sample is calculated from the standard curve obtained from the absorbance values of the standard solutions with the kit (Chan W Y, Lau P M, Yeung K W, Kong S K. The second generation tyrosine kinase inhibitor dasatinib induced eryptosis in human erythrocytes—An in vitro study. Toxicol Lett. 2018; 295:10-21). This activity is normalized compared to the control group by dividing by the amount of protein in each sample.
The effects of 11 2-indolinone compounds (Y1, Y2, Y3, Y4, Y5, Y8, Y14, Y21, Y23, 20C and 22C) having the structure of formula (5), which are prominent with their cytotoxicity in A498, MIAPaCa-2 and HCT-116 cancer cell lines and nontoxic properties in healthy cells, on general tyrosine kinase activity in cancer cells are determined.

[4] = tested on: pancreas and kidney cancer cells; assay: Apoptosis detection, Annexin V/PI flow cytometry, pancreas and kidney cancer cells; assay type: cell-based, human
Procedure: as §3
Whether the 2-indolinone derivatives (5) with the highest selectivity index and general TKI activity stimulated apoptosis and necrosis is determined by Annexin V and propidium iodine staining in pancreas and kidney cancer cells. Annexin V/PI flow cytometry apoptosis values of the tested compounds Y1, Y2, Y3, Y4, Y8 and Y14 are found to be 40% and above in correlation with MTT results. The apoptosis rates of the control groups and the substances are analyzed by t test in GraphPad version 9.0.

[5] = no * mark (incubation time not specified)
[6] = read-out: IC50, MDA-MB-231 (breast)
[7] = MTT, no * mark (incubation time not specified)

Row | SMILES | IC50 (A498 cells; [5]) [µM] | IC50 (MDA-MB-231 cells; [6]) [µM] | IC50 (MIAPaCa-2 cells [1]; [7]) [µM] | IC50 (A549 cells; [5]) [µM] | IC50 (HCT-116 cells; [5]) [µM] | IC50 (CAKI-1 cells; [5]) [µM] | potency/selectivity compared with sunitinib malate (human cancer cells) | IC50 (HT-29 cells; [5]) [µM] | IC50 (MCF-7 cells; [5]) [µM] | Selectivite Index, MCF-10F/Beas2b (Table 2) (MCF-10F/Beas2b cells; cancer line not given) | Selectivite Index, HUVEC (Table 2) (HUVEC cells; cancer line not given) | IC50 (HUVEC cells; [5]) [µM] | other results
1 | Cc1cccc(CN2C(=O)/C(=C\c3c[nH]c4ccccc34)c3cccc(Cl)c32)c1 [27C] | 2.4 | 0.81 | > 10 | > 10 | > 10 | > 10 | much more potent and have higher SI values than the reference compound sunitinib malate | > 10 | 3.67 | – | – | – | Selectivite Index (SI), MCF-10F/Beas2b (Table 1) (MCF-10F/Beas2b cells; MCF-10F/Beas2b vs breast or kidney cancer cells, cancer line not given): > 12.34; selectivity index (SI) (MDA-MB-231 cells; MCF-10F vs MDA-MB-231): > 12; Selectivite Index (SI), HUVEC (Table 1) (HUVEC cells; HUVEC vs breast or kidney cancer cells, cancer line not given): 1.28; IC50 (HUVEC cells; *: effective 72 hours after incubation): 1.04 µM
2 | Cn1cc(/C=C2\C(=O)N(Cc3ccccc3)c3ccc(OC(F)(F)F)cc32)c2ccccc21 [Y14] | > 10 | > 10 | 0.15 | > 10 | > 10 | > 10 | – | > 10 | 6.09 | 45.06 | > 66.66 | > 10 | IC50 (MCF-10F/Beas2b cells; [5]): 6.76 µM; necrosis compared to control (MIAPaCa-2 cells [2]; MiaPaca-2): did not cause necrosis; apoptosis (early and late) compared to control (MIAPaCa-2 cells [2]; MiaPaca-2, IC50 values): increase in apoptosis at IC50 values was statistically significant; general tyrosine kinase activity compared to control [3]: significantly decreased; also recorded: decreased the general tyrosine kinase activity; Annexin V/PI flow cytometry apoptosis values [4]: ≥ 40%
3 | O=C1/C(=C\c2c[nH]c3ccccc23)c2cc(Cl)ccc2N1Cc1ccc(F)cc1 [17C] | – | – | – | – | – | – | more potent than sunitinib malate | – | – | – | – | – | IC50 (MCF-10F/Beas2b cells; Homo sapiens, *: effective 72 hours after incubation): 2.66 µM; IC50 (MCF-10F/Beas2b cells; Homo sapiens, no * mark (incubation time not given)): 2.66 µM; cytotoxicity in healthy cells (MCF-10F/Beas2b cells; healthy cells): high in healthy cells; IC50 (A498 cells; Homo sapiens, A498, 72 h, *: effective 72 hours after incubation): 0.77 µM; IC50 (MDA-MB-231 cells; Homo sapiens, MDA-MB-231, read-out: IC50, MDA-MB-231 (breast)): > 10 µM; IC50 (MIAPaCa-2 cells [1]; Homo sapiens, MIA PaCa-2, MTT, no * mark (incubation time not given)): 1.32 µM; IC50 (A549 cells; Homo sapiens, A549, no * mark (incubation time not given)): 1.11 µM; IC50 (HCT-116 cells; Homo sapiens, HCT-116, no * mark (incubation time not given)): 0.93 µM; IC50 (CAKI-1 cells; Homo sapiens, CAKI-1, *: effective 72 hours after incubation): 4.62 µM; IC50 (HUVEC cells; Homo sapiens, HUVEC, no * mark (incubation time not given)): 1.24 µM; IC50 (HT-29 cells; Homo sapiens, HT-29, no * mark (incubation time not given)): 2.07 µM; IC50 (MCF-7 cells; Homo sapiens, MCF7, *: effective 72 hours after incubation): 4.76 µM
4 | O=C1/C(=C\c2c[nH]c3ccccc23)c2ccccc2N1Cc1cccc(F)c1 [51C] | 6.22 | > 10 | 5.2 | > 10 | 1.13 | > 10 | more potent and selective than Sunitinib malate | 0.93 | > 10 | > 10.75 | 6.13 | 5.7 | selectivity index (HT-29 cells; MCF-10F/Beas2b vs HT-29): > 11
